Measurements published in patent publication US20070167464A1, “Fungicidal mixtures” (BASF Aktiengesellschaft, priority 2004, published 2007).

Test system: Pyrenophora teres
Assay: activity against net blotch of barley caused by Pyrenophora teres, 1-day-protective application
Format: in vivo, Pyrenophora [syn. Drechslera] teres on barley seedlings
Conditions: individual active compound, evaluated after 6 days
Method: The active compounds, separately or jointly, were prepared as a stock solution comprising 0.25% by weight of active compound in acetone or DMSO. 1% by weight of the emulsifier Uniperol® EL (wetting agent having emulsifying and dispersant action based on ethoxylated alkylphenols) was added to this solution, and the mixture was diluted with water to the desired concentration.
Use example-activity against net blotch of barley caused by Pyrenophora teres, 1-day-protective application
Leaves of pot-grown barley seedlings were sprayed to run-off point with an aqueous suspension having the concentration of active compound stated below. 24 hours after the spray coating had dried on, the test plants were inoculated with an aqueous spore suspension of Pyrenophora[syn. Drechslera] teres, the causative agent of net blotch. The test plants were subsequently placed in a greenhouse at temperatures between 20 and 24° C. and at 95 to 100% relative atmospheric humidity. After 6 days, the extent of development of the disease was determined visually in % infection of the total leaf area.
The visually determined percentages of infected leaf areas were converted into efficacies in % of the untreated control:
The efficacy (E) is calculated as follows using Abbot's formula: E=(1α/β)·100 • α corresponds to the fungicidal infection of the treated plants in % and • β corresponds to the fungicidal infection of the untreated (control) plants in %
An efficacy of 0 means that the infection level of the treated plants corresponds to that of the untreated control plants; an efficacy of 100 means that the treated plants were not infected.
The expected efficacies of mixtures of active compounds were determined using Colby's formula (Colby, S. R. “Calculating synergistic and antagonistic responses of herbicide combinations”, Weeds, 15, 20-22, 1967) and compared with the observed efficacies.
Colby's Formula: E=x+y−x·y/100 • E expected efficacy, expressed in % of the untreated control, when using the mixture of the active compounds A and B at the concentrations a and b • x efficacy, expressed in % of the untreated control, when using the active compound A at the concentration a
y efficacy, expressed in % of the untreated control, when using the active compound B at the concentration b

Compound	Efficacy in % of the untreated control (1.25 ppm in the spray liquor) [%]	Efficacy in % of the untreated control (0.25 ppm in the spray liquor) [%]	Efficacy in % of the untreated control (6.25 ppm in the spray liquor) [%]
CC1CCN(c2c(-c3c(F)cc(F)cc3F)c(Cl)nc3ncnn23)CC1 [I, 5-chloro-7-(4-methylpiperidin-1-yl)-6-(2,4,6-trifluorophenyl)-[1,2,4]triazolo[1,5-a]pyrimidine]	53	–	–
CC(C)OC(=O)N[C@H](C(=O)N[C@H](C)c1nc2ccc(F)cc2s1)C(C)C [II.1, isopropyl {(S)-1-[(1 R)-1-(6-fluorobenzothiazol-2-yl)ethylcarbamoyl]-2-methylpropyl}carbamate]	0	0	0
